The target in one assay is T1, CyclinA2/CDK2 (Homo sapiens, UniProt P20248).
T1 construct: purchased CRELUX Protein Services
Description: Fluorescence Polarization (FP) competitive binding assay, Cyclin A2/Cdk2.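 Note: plates equilibrated two hours at room temperature before polarization reading, IC50 fitted from eight-concentration compound titration curves.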 To be noted: 8 nM Cyclin A2/Cdk2, 2 nM FAM probe; average of 2-3 independent experiments; read-out: Cyclin A FP IC50. (In fluorescence polarisation assays a small probe gives low polarisation when free and higher when bound to something large.)

The target in another assay is T2, CyclinB1/CDK1 (Homo sapiens, UniProt P14635).
T2 construct: purchased Eurofins, discovery 14-450
Description: Fluorescence Polarization (FP) competitive binding assay, Cyclin B1/Cdk1.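 Note: fluorescence polarization read after equilibration at room temperature, with IC50 taken from serially diluted dose-response curves.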 The conditions noted are these: 10 nM Cyclin B1/Cdk1, 2 nM FAM probe; average of 2-3 independent experiments; read-out: Cyclin B FP IC50.

For another assay, the target named is T3, CyclinE1/CDK2 (Homo sapiens, UniProt P24864).
T3 construct: purchased Eurofins, discovery 14-475
Description: Fluorescence Polarization (FP) competitive binding assay, Cyclin E1/Cdk2.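 Note: readings taken after two-hour equilibration at room temperature in HEPES buffer with NaCl, DTT, NP-40 and BSA, IC50 fitted from eight-concentration serial dilution series.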 To be noted: 10 nM Cyclin E1/Cdk2, 2 nM FAM probe; average of 2-3 independent experiments; read-out: Cyclin E FP IC50.

The test system of the next assay is NCI-H1048 cells. Description: MTT proliferation assay, NCI-H1048.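 Note: Dose-response in 96-well plates over 8 or 10 concentration points, with exposure spanning 3-4 cell doublings.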 It is filed as cell-based. The conditions noted are these: 5 days compound exposure, 1:3 serial dilution starting at 10 μM. On the technique in general: Tetrazolium assays rely on reduction of a dye to a coloured formazan, in cell work by metabolically active cells.
The subject of another assay is OVCAR3 cells. Description: MTT proliferation assay, OVCAR3.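 Note: compound given as an 8- or 10-point series, one day after plating, with exposure covering roughly 3-4 cell doublings.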 It is filed as cell-based. To be noted: 5 days compound exposure, 1:3 serial dilution starting at 10 μM.

pIC50: −log10 of the molar value. *1 amine or outer side, *2 acyl side, *3 side chain or, on linkers, in order; H or OH if unused. Where a SMILES comes first, the peptide text is derived from it. Bridges are numbered along the chain shown (N, C = ends). [ ]: non-standard residue; d: D form. The star is where a group is joined. X126 = CC(C)C(=O)N1[C@H]2COC[C@@H]1C=C(c1ccc(F)cc1C[C@@H](C(=O)[*:2])N(C)[*:1])C2; X205 = CC(C)C(=O)N1[C@@H]2COC[C@H]1C=C(c1ccc(F)cc1C[C@@H](C(=O)[*:2])N(C)[*:1])C2; X190 = CC(=O)N1CC(Oc2ncc(Cl)cc2C[C@@H](C(=O)[*:2])N(C)[*:1])C1; NMehhhLys(Me) = CN([C@@H](CCCCCCCN(C)[*:3])C(=O)[*:2])[*:1]; X159 = CN([C@@H](Cc1cc(Cl)cnc1Oc1cnn(C)c1)C(=O)[*:2])[*:1]; X163 = CN([C@@H](Cc1cc(Cl)ccc1N1CCOCC1)C(=O)[*:2])[*:1]; NMe(hhhLys) = CN([C@@H](CCCCCCCN[*:3])C(=O)[*:2])[*:1]; cBuCO(3,3-F2-1-CF3) = O=C(C1(C(F)(F)F)CC(F)(F)C1)*; X133 = Cc1ncc(Cl)cc1C[C@@H](C(=O)[*:2])N(C)[*:1]; Pro(trans-4-F) = O=C(O)[C@@H]1C[C@@H](F)CN1; Gly(cPr) = N[C@H](C(=O)O)C1CC1

For `CC(C)C[C@@H]1NC(=O)[C@@H](N(C)C(=O)[C@@H](NC(=O)[C@@H]2C[C@@H](F)CN2C(=O)C2(C(F)(F)F)CC(F)(F)C2)C2CC2)CCCCCCCN(C)C(=O)[C@H](Cc2cc(Cl)ccc2N2CCOCC2)N(C)C1=O` [Example 319] ({cBuCO(3,3-F2-1-CF3)}-[Pro(trans-4-F)][Gly(cPr)][NMehhhLys(Me)]L[X163]; lactam 3-C), the results for the pIC50 on CyclinA2/CDK2, at CyclinB1/CDK1 and at CyclinE1/CDK2 were 7.52, 7.70 and 5.87, respectively. The values for the GI50 in the assay with NCI-H1048 cells and in the assay on OVCAR3 cells were 0.01 µM and 0.02 µM, respectively.

Take `Cc1ncc(Cl)cc1C[C@H]1C(=O)N(C)CCCCCCC[C@H](N(C)C(=O)[C@@H](NC(=O)[C@@H]2C[C@@H](F)CN2C(=O)C2(C(F)(F)F)CC(F)(F)C2)C2CC2)C(=O)N[C@@H](CC(C)C)C(=O)N1C` [Example 322] ({cBuCO(3,3-F2-1-CF3)}-[Pro(trans-4-F)][Gly(cPr)][NMehhhLys(Me)]L[X133]; lactam 3-C): the pIC50 is 7.10 on CyclinA2/CDK2, 7.70 on CyclinB1/CDK1 and 6.28 on CyclinE1/CDK2. Moreover, the GI50 in the assay with NCI-H1048 cells is 0.03 µM; in the assay on OVCAR3 cells it was 0.06 µM.

Turning to `CC(C)C[C@@H]1NC(=O)[C@@H](N(C)C(=O)[C@@H](NC(=O)[C@@H]2C[C@@H](F)CN2C(=O)C2(C(F)(F)F)CC(F)(F)C2)C2CC2)CCCCCCCN(C)C(=O)[C@H](Cc2cc(Cl)cnc2Oc2cnn(C)c2)N(C)C1=O` [Example 323] ({cBuCO(3,3-F2-1-CF3)}-[Pro(trans-4-F)][Gly(cPr)][NMehhhLys(Me)]L[X159]; lactam 3-C), the pIC50 on CyclinA2/CDK2 is 7.52; at CyclinB1/CDK1, 7.70; at CyclinE1/CDK2 it was 6.62. Further, the 50% growth inhibitory concentration (GI50) in the assay with NCI-H1048 cells and with OVCAR3 cells was 0.01 µM each time.

Regarding `CC(=O)N1CC(Oc2ncc(Cl)cc2C[C@H]2C(=O)N(C)CCCCCCC[C@H](N(C)C(=O)[C@@H](NC(=O)[C@@H]3C[C@@H](F)CN3C(=O)C3(C(F)(F)F)CC(F)(F)C3)C3CC3)C(=O)N[C@@H](CC(C)C)C(=O)N2C)C1` [Example 324] ({cBuCO(3,3-F2-1-CF3)}-[Pro(trans-4-F)][Gly(cPr)][NMehhhLys(Me)]L[X190]; lactam 3-C), the pIC50 was 7.22 at CyclinA2/CDK2, 7.70 at CyclinB1/CDK1 and 6.28 at CyclinE1/CDK2. Moreover, the 50% growth inhibitory concentration (GI50) came out at 0.04 µM in the assay with NCI-H1048 cells and 0.08 µM in the assay on OVCAR3 cells.

Regarding `CC(C)C[C@@H]1NC(=O)[C@@H](N(C)C(=O)[C@@H](NC(=O)[C@@H]2C[C@@H](F)CN2C(=O)C2(C(F)(F)F)CC(F)(F)C2)C2CC2)CCCCCCCNC(=O)[C@H](Cc2cc(F)ccc2C2=C[C@@H]3COC[C@H](C2)N3C(=O)C(C)C)N(C)C1=O` [Example 325] ({cBuCO(3,3-F2-1-CF3)}-[Pro(trans-4-F)][Gly(cPr)][NMe(hhhLys)]L[X205]; lactam 3-C), the figures for the pIC50 at CyclinA2/CDK2, at CyclinB1/CDK1 and on CyclinE1/CDK2 were 7.70, 7.70 and 6.52, respectively. Moreover, the GI50 with NCI-H1048 cells and with OVCAR3 cells was 0.01 µM each time.

Take `CC(C)C[C@@H]1NC(=O)[C@@H](N(C)C(=O)[C@@H](NC(=O)[C@@H]2C[C@@H](F)CN2C(=O)C2(C(F)(F)F)CC(F)(F)C2)C2CC2)CCCCCCCNC(=O)[C@H](Cc2cc(F)ccc2C2=C[C@H]3COC[C@@H](C2)N3C(=O)C(C)C)N(C)C1=O` [Example 326] ({cBuCO(3,3-F2-1-CF3)}-[Pro(trans-4-F)][Gly(cPr)][NMe(hhhLys)]L[X126]; lactam 3-C): the pIC50 is 7.70 on CyclinA2/CDK2, 7.70 at CyclinB1/CDK1 and 6.82 at CyclinE1/CDK2. For the same compound, the GI50 in the assay with NCI-H1048 cells and in the assay with OVCAR3 cells was 0.01 µM in each case.

As to `CC(C)C[C@@H]1NC(=O)[C@@H](N(C)C(=O)[C@@H](NC(=O)[C@@H]2C[C@@H](F)CN2C(=O)C2(C(F)(F)F)CC(F)(F)C2)C2CC2)CCCCCCCN(C)C(=O)[C@H](Cc2cc(F)ccc2C2=C[C@H]3COC[C@@H](C2)N3C(=O)C(C)C)N(C)C1=O` [Example 328] ({cBuCO(3,3-F2-1-CF3)}-[Pro(trans-4-F)][Gly(cPr)][NMehhhLys(Me)]L[X126]; lactam 3-C), the negative-log IC50 (pIC50) on CyclinA2/CDK2 was 7.70; at CyclinB1/CDK1, 7.70; at CyclinE1/CDK2, 6.68. Further, the GI50 in the assay on NCI-H1048 cells and in the assay with OVCAR3 cells was 0.01 µM throughout.

A word on the pIC50: it is −log10 of the IC50, conventionally taken in molar units. As a reminder, the GI50 is the concentration that inhibits growth by half.

Values taken from US20240408169A1 (priority 2023, published 2024).
